The values that follow come from ChEMBL document CHEMBL1150450, “Synthesis and antiangiogenic activity of new carbohydrate derivatives” (Bioorg Med Chem Lett, 1996).

“And” between values parts separate entries of the source, which are not always exact repeats. Equal values may be shown once. Where only a bound is given, the exact number is not on record here.

In assay [1] the test system is A-431. As to the kind of experiment: In vitro antiproliferative effect against A431 human epidermoid carcinoma cells. It counts as functional, cell-based.
Assay [2] is filed under the species Gallus gallus. The assay is described as follows: Antiangiogenic activity using CAM assay, activity expressed as % of eggs with avascular zone (125 nM). It counts as functional.
A short description of assay [3]: Antiproliferative effect against primary endothelial cells from pork aorta(ECPA). It counts as functional, cell-based, Sus scrofa, Endothelial cell.
The nature of assay [4]: Compound was tested for antiproliferative effect against primary endothelial cells from pork aorta(ECPA). It counts as functional, cell-based. To be noted: Sus scrofa, Endothelial cell.
The nature of assay [5]: Compound was tested for antiproliferative effect against primary endothelial cells from pork aorta(ECPA) with first-phase IC50 of 0.1 nM. The following applies: Sus scrofa, Endothelial cell.
Assay [6] is described as follows: Compound was tested for antiproliferative effect against primary endothelial cells from pork aorta(ECPA) with first-phase IC50 of 0.001 nM. To be noted: Sus scrofa, Endothelial cell.
Assay [7] in a line: Compound was tested for antiproliferative effect against primary endothelial cells from pork aorta (ECPA) with first-phase IC50 of 0.1 nM. To be noted: Sus scrofa, Endothelial cell.

`CO[C@@H]1[C@H](OC(=O)NC(=O)CCl)CO[C@]2(COC(C)(C)O2)[C@]1(CCCCCc1ccccc1)OC(=O)NC(=O)CCl`: the IC50 in assay [1] (Homo sapiens, A-431) is 1.2 µM; in assay [3] (Sus scrofa, Endothelial cell), 0.8 µM. The compound further registered an Eggs in assay [2] of 88%.
Take `CO[C@@H]1[C@H](OC(=O)NC(=O)c2ccccc2)CO[C@]2(COC(C)(C)O2)[C@@]1(O)C1(C)CO1` (some centres not stated): the IC50 in assay [1] (Homo sapiens, A-431) is over 500 µM; in assay [3] (Sus scrofa, Endothelial cell) it was 363 µM. The compound also yielded an Eggs in assay [2] of 55%.
The corresponding values for `CNC(=O)O[C@@H]1CO[C@]2(COC(C)(C)O2)[C@@](O)(C2(C)CO2)[C@@H]1OC` (some centres not stated) are over 500 µM, 195 µM and 51%.
The like results for `CCOC(=O)CNC(=O)O[C@@H]1CO[C@]2(COC(C)(C)O2)[C@@](O)(C2OC2CC(C)C)[C@@H]1OC` (some centres not stated) were, in that order, 442 µM, 343 µM and 21%.
Regarding `CO[C@@H]1[C@H](OC(=O)NC(=O)CCl)CO[C@]2(COC(C)(C)O2)[C@@]1(OC(=O)NC(=O)CCl)C1OC1CCCc1ccccc1` (some centres not stated), the IC50 in assay [1] (Homo sapiens, A-431) came to 3.7 µM; in assay [3] (Sus scrofa, Endothelial cell), 16 µM. This compound yielded an Eggs in assay [2] of 63%.
The like results for `CO[C@@H]1[C@H](OC(=O)NC(=O)CCl)CO[C@]2(COC(C)(C)O2)[C@@]1(OC(=O)NC(=O)CCl)C1(C)CO1` (some centres not stated) were, in that order, 38 µM, 122 µM and 62%.
With `CO[C@@H]1[C@H](OC(=O)NC(=O)CCl)CO[C@]2(COC(=O)O2)[C@]1(CCCCCc1ccccc1)OC(=O)NC(=O)CCl`, the IC50 in assay [1] (Homo sapiens, A-431) came to 2 µM; in assay [3] (Sus scrofa, Endothelial cell), 2.4 µM. Moreover, the Eggs in assay [2] was found to be 80%.
The corresponding values for `CO[C@@H]1C(=O)CO[C@]2(COC(C)(C)O2)[C@@]1(O)C1(C)CO1` (some centres not stated) are over 500 µM, 119 µM and 48%.
As for `CO[C@@H]1[C@H](OC(=O)NCCCl)CO[C@]2(COC(C)(C)O2)[C@@]1(O)C1(C)CO1` (some centres not stated), the IC50 was over 500 µM in assay [1] (Homo sapiens, A-431) and 278 µM in assay [3] (Sus scrofa, Endothelial cell). In assay [2], this compound registered an Eggs of 10%.
The like results for `CO[C@@H]1[C@H](OC(=O)NC(=O)CCl)CO[C@]2(COC(C)(C)O2)[C@@]1(OC)C1(C)CO1` (some centres not stated) were, in that order, 39 µM, 175 µM and 16%.
The corresponding values for `CO[C@@H]1[C@H](OC(=O)NC(=O)CCl)CO[C@]2(COC(C)(C)O2)[C@@]1(OC(=O)NC(=O)CCl)C(C)C` are 5.6 µM, 23 µM and 95%.
For `CO[C@@H]1[C@H](OC(=O)NC(=O)CCl)CO[C@]2(COC(C)(C)O2)[C@@]1(O)C1OC1CC(C)C` (some centres not stated), the IC50 in assay [1] (Homo sapiens, A-431) was determined as 44 µM; in assay [3] (Sus scrofa, Endothelial cell), 124 µM; in assay [3] (endothelial cell), 178 µM. For the same compound, the Eggs in assay [2] was 75% and 68%.
Turning to `CO[C@@H]1[C@H](OC(=O)NC(=O)CCl)CO[C@]2(COC(C)(C)O2)[C@@]1(O)C1OC1CCCc1ccccc1` (some centres not stated), the IC50 stood at 19 µM in assay [1] (Homo sapiens, A-431); 29 µM in assay [1] (a-431); 68 µM in assay [3] (Sus scrofa, Endothelial cell); 90 µM in assay [3] (endothelial cell). The Eggs in assay [2] was 79% and 76%.
`CO[C@@H]1[C@H](OC(=O)NC(=O)CCl)CO[C@]2(COC(=O)O2)[C@@]1(O)CCCCCc1ccccc1`: the IC50 in assay [1] (Homo sapiens, A-431) is 11 µM; in assay [4] it was 14 µM. Further, the Eggs in assay [2] is 95%.
For `CCOC(=O)NC(=O)O[C@@H]1CO[C@]2(COC(C)(C)O2)[C@@](O)(C2OC2CC(C)C)[C@@H]1OC` (some centres not stated), the IC50 in assay [1] (Homo sapiens, A-431) stood at 471 µM; in assay [3] (Sus scrofa, Endothelial cell), 398 µM. In addition, in assay [2], the Eggs turned out to be 11%.
The corresponding values for `CO[C@@H]1[C@H](OC(=O)NC(=O)CCl)CO[C@]2(COC(C)(C)O2)[C@@]1(O)C1(C)CO1` (some centres not stated) are 84 µM, 57 µM and 84%.
The corresponding values for `C=C(C)[C@@]1(O)[C@H](OC)[C@H](OC)CO[C@]12CO2` are over 500 µM, over 500 µM and 32%.
Consider `CO[C@@H]1[C@H](OC(=O)/C=C/C=C/C=C/C=C/C(=O)O)CC[C@]2(CO2)[C@H]1[C@@]1(C)O[C@@H]1CC=C(C)C` [FUMAGILLIN], for which the IC50 in assay [1] (Homo sapiens, A-431) came to 48 µM; in assay [5], 100 µM. Also, the Eggs in assay [2] stood at 80%.
On to `CO[C@@H]1[C@H](OC(=O)NC(=O)CCl)CC[C@]2(CO2)[C@H]1[C@@]1(C)O[C@@H]1CC=C(C)C` [O-CHLOROACETYLCARBAMOYLFUMAGILLOL], for which the IC50 in assay [1] (Homo sapiens, A-431) came out at 5.3 µM; in assay [6], 12 µM. In assay [2], this compound yielded an Eggs of 85%.
Regarding `CO[C@@H]1C(=O)CC[C@]2(CO2)[C@@]1(O)[C@@]1(C)O[C@@H]1CC=C(C)C` [OVALICIN], the IC50 in assay [1] (Homo sapiens, A-431) came out at 7.5 µM; in assay [7], 10 µM.

Usually IC50 stands for the concentration that inhibits the measured activity by half. Lower therefore signals greater potency in that assay.
